Assay results: ChEMBL document CHEMBL3792312, “Synthesis and docking studies of pyrazine-thiazolidinone hybrid scaffold targeting dormant tuberculosis” (Bioorg Med Chem Lett, 2016)
In brackets after ≈: the same amount, converted by molar mass.

Experiments:
Pseudomonas fluorescens [1] = experiment: Antibacterial activity against Pseudomonas fluorescens at 10 ug after 8 hrs; assay type: functional
Escherichia coli [2] = experiment: Antibacterial activity against Escherichia coli at 30 ug after 8 hrs; assay type: functional
Pseudomonas fluorescens [3] = experiment: Antibacterial activity against Pseudomonas fluorescens at 3 ug after 8 hrs; assay type: functional
Bacillus subtilis [4] = experiment: Antibacterial activity against Bacillus subtilis at 30 ug after 12 hrs; assay type: functional
Staphylococcus aureus [5] = experiment: Antibacterial activity against Staphylococcus aureus at 3 ug after 12 hrs; assay type: functional
Staphylococcus aureus [6] = experiment: Antibacterial activity against Staphylococcus aureus at 30 ug after 12 hrs; assay type: functional
Bacillus subtilis [7] = experiment: Antibacterial activity against Bacillus subtilis at 10 ug after 12 hrs; assay type: functional
Bacillus subtilis [8] = experiment: Antibacterial activity against Bacillus subtilis at 3 ug after 12 hrs; assay type: functional
Escherichia coli [9] = experiment: Antibacterial activity against Escherichia coli at 10 ug after 8 hrs; assay type: functional
[10] = tested on: Mycolicibacterium smegmatis; experiment: Antitubercular activity against dormant Mycobacterium smegmatis MC2 155 at 10 ug after 12 days by XTT-Menadione assay; assay type: functional, str. MC2 155
Staphylococcus aureus [11] = experiment: Antibacterial activity against Staphylococcus aureus at 10 ug after 12 hrs; assay type: functional
[12] = tested on: Mycobacterium tuberculosis; experiment: Antitubercular activity against dormant Mycobacterium tuberculosis H37Ra at 10 ug after 12 days by XTT-Menadione assay; assay type: functional
[13] = Cytotoxicity against human PANC1 cells after 5 days by MTT assay; assay type: cell-based, PANC-1; settings: for IC50: Homo sapiens, PANC-1, 120 h; for MCC at 120 h: human, PANC1 cells, read-out: MIC
Pseudomonas fluorescens [14] = experiment: Antibacterial activity against Pseudomonas fluorescens at 30 ug after 8 hrs; assay type: functional
[15] = tested on: Mycobacterium tuberculosis; experiment: Antitubercular activity against dormant Mycobacterium tuberculosis H37Ra at 30 ug after 12 days by XTT-Menadione assay; assay type: functional
Escherichia coli [16] = experiment: Antibacterial activity against Escherichia coli at 3 ug after 8 hrs; assay type: functional
A549 = experiment: (§1) Cytotoxicity against human A549 cells after 3 days by MTT assay; assay type: cell-based; settings: Homo sapiens, A549, 72 h
[17] = as §1; assay type: cell-based; settings: human, A549 cells; read-out: MIC
[18] = tested on: Mycolicibacterium smegmatis; experiment: Antitubercular activity against dormant Mycobacterium smegmatis MC2 155 at 30 ug after 12 days by XTT-Menadione assay; assay type: functional, str. MC2 155
[19] = Cytotoxicity against human THP1 cells after 5 days by MTT assay; assay type: cell-based, THP-1; settings: for IC50: Homo sapiens, THP-1, 120 h; for MCC at 120 h: human, THP1 cells, read-out: MIC
[20] = tested on: Mycobacterium tuberculosis; experiment: Antitubercular activity against dormant Mycobacterium tuberculosis H37Ra at 3 ug after 12 days by XTT-Menadione assay; assay type: functional
[21] = tested on: Mycolicibacterium smegmatis; experiment: Antitubercular activity against dormant Mycobacterium smegmatis MC2 155 at 3 ug after 12 days by XTT-Menadione assay; assay type: functional, str. MC2 155
MCF7 = experiment: (§2) Cytotoxicity against human MCF7 cells after 4 days by MTT assay; assay type: cell-based; settings: Homo sapiens, MCF7, 96 h
[22] = as §2; assay type: cell-based; settings: human, MCF7 cells; read-out: MIC
[23] = tested on: Mycobacterium tuberculosis; experiment: Antitubercular activity against dormant Mycobacterium tuberculosis H37Ra after 12 days by XTT-Menadione assay; assay type: functional, organism-based; settings: 288 h

Row | SMILES | inhibition (INH) (Pseudomonas fluorescens [1]) | inhibition (INH) (Escherichia coli [2]) | inhibition (INH) (Pseudomonas fluorescens [3]) | inhibition (INH) (Bacillus subtilis [4]) | inhibition (INH) (Staphylococcus aureus [5]) | inhibition (INH) (Staphylococcus aureus [6]) | inhibition (INH) (Bacillus subtilis [7]) | inhibition (INH) (Bacillus subtilis [8]) | inhibition (INH) (Escherichia coli [9]) | inhibition (INH) [10] | inhibition (INH) (Staphylococcus aureus [11]) | inhibition (INH) [12] | IC50 [13] | MCC at 120 h [13] | inhibition (INH) (Pseudomonas fluorescens [14]) | inhibition (INH) [15] | inhibition (INH) (Escherichia coli [16]) | inhibition (INH) [18] | inhibition (INH) [20] | inhibition (INH) [21] | other results
1 | Nc1nccnc1C(=O)NN1C(=O)CSC1c1ccccc1 (stereo unspecified) | 3.29% | 8.78% | 25.98% | 19.82% | -20.13% | -1.45% | -6.1% | -4.3% | -71.2% | 52.56% | 32.35% | 71.09% | > 100 µg/mL | > 100 µg/mL | 30.72% | 91.57% | -94.8% | -60.9565% | 70.02% | 43.05% | IC50 (A549): 77 µg/mL (≈ 244 µM); MCC at 72 h [17]: > 100 µg/mL; IC50 [19]: 89.6 µg/mL (≈ 284 µM); MCC at 120 h [19]: > 100 µg/mL; IC50 (MCF7): 81.3 µg/mL (≈ 258 µM); MCC at 96 h [22]: > 100 µg/mL; IC50 [23]: 0.909 µg/mL (≈ 2.88 µM); MIC [23]: 28 µg/mL (≈ 88.9 µM)
2 | O=C(NN1C(=O)CSC1c1ccc(O)cc1)c1cnccn1 (stereo unspecified) | 5.678% | 39.38% | 9.87% | 1.8% | 24.23% | 30.2% | -7.31% | -5.94% | 49.76% | 31.9215% | 16.31% | 45.24% |  |  | 27.67% | 53.37% | 41.07% | 45.5719% | 40.52% | 28.83% | 
3 | Cc1cnc(C(=O)NN2C(=O)CSC2c2ccc(O)cc2)cn1 (stereo unspecified) | 29.13% | 32.37% | 29.07% | 16.21% | -7.09% | -4.04% | 19.81% | -6.172% | -32.72% | 15.78% | 6.02% | 70.55% |  |  | -20.73% | 75.49% | -51.23% | 7.295% | 64.79% | 30.34% | 
4 | COc1ccc(C2SCC(=O)N2NC(=O)c2cnc(C)cn2)cc1OC (stereo unspecified) | 28.51% | -11.14% | -2.69% | 14.25% | 48.7% | 2.4% | 18.53% | 13.25% | -59.8% | 46.67% | -14.6% | 72.12% |  |  | -5.41% | 73.51% | -46.22% | 9.358% | 68.91% | 8.925% | 
5 | COc1ccc(C2SCC(=O)N2NC(=O)c2cnc(C)cn2)cc1 (stereo unspecified) | 19.06% | 17.95% | -0.838% | 18.72% | -9.85% | -29.6% | -8.08% | 19.31% | -9.96% | 11.4077% | -29.27% | 65.76% |  |  | 29.02% | 71.41% | 9.978% | 27.97% | 63.11% | 46.39% | 
6 | COc1ccc([C@H]2SCC(=O)N2NC(=O)c2nccnc2N)cc1OC | 22.77% | 4.659% | 30.31% | 9.92% | 26.84% | 34.19% | 22.5% | 8.28% | 50.22% | 35.96% | 6.63% | 70.88% | > 100 µg/mL | > 100 µg/mL | 41.19% | 90.99% | 70.93% | 31.62% | 50.37% | 50.59% | IC50 (A549): 80 µg/mL (≈ 213 µM); MCC at 72 h [17]: > 100 µg/mL; IC50 [19]: 85.4 µg/mL (≈ 228 µM); MCC at 120 h [19]: > 100 µg/mL; IC50 (MCF7): 86.2 µg/mL (≈ 230 µM); MCC at 96 h [22]: > 100 µg/mL; IC50 [23]: 0.718 µg/mL (≈ 1.91 µM); MIC [23]: 25.8 µg/mL (≈ 68.8 µM)
7 | CCOc1cc([C@H]2SCC(=O)N2NC(=O)c2nccnc2N)ccc1O | 20.37% | -33.02% | -6.51% | 9.32% | 4.98% | 24.55% | -16.24% | 22.27% | -9.65% | 38.28% | -5.22% | 65% | > 100 µg/mL | > 100 µg/mL | 40.87% | 91.26% | -48.72% | -15.9058% | 48.5% | 12.74% | IC50 (A549): 84.2 µg/mL (≈ 224 µM); MCC at 72 h [17]: > 100 µg/mL; IC50 [19]: 68.9 µg/mL (≈ 183 µM); MCC at 120 h [19]: > 100 µg/mL; IC50 (MCF7): 80.8 µg/mL (≈ 215 µM); MCC at 96 h [22]: > 100 µg/mL; IC50 [23]: 3.46 µg/mL (≈ 9.22 µM); MIC [23]: 28.6 µg/mL (≈ 76.3 µM)
